Data as given in US20210255193A1, “LYSINE REACTIVE PROBES AND USES THEREOF” (The Scripps Research Institute, priority 2017, published 2021).

Assays:
PNPO [1] = molecular target: T1, PNPO (Homo sapiens, UniProt Q9NVS9); assay: PNPO functional assay; assay type: biochemical; conditions: substrate assay, WT; read-out: IC50, blockade of PNPO catalytic activity
T1 construct: Flag; expressed in transfected cells; host or cells: HEK 293T, transient transfection, soluble lysate
T1 sequence (Q9NVS9 1-261): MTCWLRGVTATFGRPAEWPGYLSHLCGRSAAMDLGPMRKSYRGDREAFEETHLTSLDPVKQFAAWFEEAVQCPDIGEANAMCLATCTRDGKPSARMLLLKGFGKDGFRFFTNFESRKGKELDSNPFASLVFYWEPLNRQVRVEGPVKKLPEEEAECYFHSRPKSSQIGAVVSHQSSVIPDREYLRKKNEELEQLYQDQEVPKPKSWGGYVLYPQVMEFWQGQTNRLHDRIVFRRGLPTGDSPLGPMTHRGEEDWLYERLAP
Description: (§1) PNPO functional assay. 80 μl of soluble proteome (total protein concentration: 1 mg ml^−1) from HEK 293T cells expressing PNPO (WT or K100R mutant) or mock transfected cells (empty vector; negative control) were added into a clear bottom 384 well plate. For compound treatments, 1 μl of the inhibitor (80× solution in DMSO) or 1 μl of DMSO (positive control) were added and the reactions were incubated for 1 h at room temperature. 10 μl of 0.1 M Tris in PBS were added and the reaction was started by addition of 10 μl 5 mM pyridoxine phosphate (PNP) in water (PNP was prepared as described in Argoudelis, C. J., “Preparation of crystalline pyridoxine 5′-phosphate and some of its properties,” J. Agr. Food Chem. 34, 995-998 (1986)). The absorbance of the Schiff Base between pyridoxal phosphate and Tris was measured at 388 nm every minute for 30 min.
(§2) Calculation of relative activity or percent inhibition. For PNPO, PFKP, NUDT2 and G6PD, the slope of the linear regression of the linear portion of the absorbance or fluorescence over time was used as measure their activity. Apparent activity was calculated relative to the WT. Percent inhibition was calculated relative to the positive and negative control and used to calculate IC50 values by nonlinear regression analysis from a dose-response curve generated using GraphPad Prism 7.

PNPO [2] = molecular target: T2, PNPO (Homo sapiens, UniProt Q9NVS9, K100R); assay: PNPO functional assay; assay type: biochemical; conditions: K100R mutant
T2 construct: Flag; expressed in transfected cells; host or cells: HEK 293T, transient transfection, soluble lysate
T2 sequence (Q9NVS9 whole entry K100R): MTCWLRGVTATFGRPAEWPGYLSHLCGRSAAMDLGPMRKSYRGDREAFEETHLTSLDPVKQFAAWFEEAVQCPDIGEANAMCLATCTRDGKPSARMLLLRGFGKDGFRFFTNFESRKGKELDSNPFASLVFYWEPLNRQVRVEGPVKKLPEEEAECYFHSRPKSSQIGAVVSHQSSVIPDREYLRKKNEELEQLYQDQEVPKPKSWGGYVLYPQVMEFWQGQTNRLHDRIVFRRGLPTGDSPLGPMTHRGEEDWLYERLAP
Description: as §1, §2

[3] = molecular target: T3, interaction between SIN3A and TGIF1 (Homo sapiens, UniProt Q96ST3); assay: Co-IP experiment, anti-Myc western blot; assay type: binding; conditions: anti-Myc blotting
T3 construct: flag-SIN3A or the indicated Flag-SIN3A mutants (a.a. 1-400), or Flag-GFP, were co-expressed in HEK 293T cells with Myc-TGIF1 or Myc-TGIF2; expressed in transfected cells; host or cells: HEK 293T
T3 sequence (Q96ST3 1-400): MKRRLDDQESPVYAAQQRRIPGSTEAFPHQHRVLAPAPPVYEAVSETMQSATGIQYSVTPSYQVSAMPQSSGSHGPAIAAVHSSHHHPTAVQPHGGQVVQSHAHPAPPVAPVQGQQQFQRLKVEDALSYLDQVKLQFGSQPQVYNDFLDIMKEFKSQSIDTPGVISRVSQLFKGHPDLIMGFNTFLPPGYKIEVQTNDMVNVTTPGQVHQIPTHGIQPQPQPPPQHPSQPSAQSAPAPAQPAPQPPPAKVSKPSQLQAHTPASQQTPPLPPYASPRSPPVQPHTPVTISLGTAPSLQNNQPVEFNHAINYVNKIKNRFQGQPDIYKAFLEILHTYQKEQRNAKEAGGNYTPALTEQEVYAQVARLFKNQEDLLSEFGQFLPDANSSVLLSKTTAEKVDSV
Description: (§3) Co-IP experiment for the interaction between SIN3A and TGIF1 and TGIF2. 6 cm dishes of HEK 293T cells were transfected at 40% confluency with 600 ng of FLAG-GFP, FLAG-SIN3A WT, K155W, or K155R construct, and 600 ng of MYC-TGIF1 or MYC-TGIF2 as indicated. After 48 hours, cells were lysed and enriched as described above. Following elution in 40 μL urea, 15 μL of loading buffer was added to samples. 15 μL of both input (10%) and outputs were loaded onto an SDS-PAGE gel.
(§4) Western blotting. Proteins were resolved by SDS-PAGE (3 h, 300 V) and transferred to nitrocellulose membranes (90 min, 60 V), blocked with 5% milk in TBS-T and probed with the indicated antibodies in 5% milk in TBS-T. The primary antibodies and the dilutions used are as follows: anti-Flag (Sigma Aldrich, F1804, 1:3,000), anti-Myc (Cell Signalling, 2272S, 1:5,000), anti-actin (Cell Signaling, 3700, 1:3,000) and anti-GAPDH (Santa Cruz, 32233, 1:10,000). Blots were incubated with primary antibodies overnight at 4° C. with rocking and were then washed (3×5 min, TBS-T) and incubated with secondary antibodies (LICOR, IRDye 800CW or IRDye 680LT, 1:10,000) for 1 h at ambient temperature. Blots were further washed (3×5 min, TBST) and visualized on a LICOR Odyssey Scanner. Relative band intensities were quantified using ImageJ software.

[4] = molecular target: T4, interaction between SIN3A and TGIF1 (Homo sapiens, UniProt Q96ST3, K155R); assay: Co-IP experiment, anti-Myc western blot; assay type: binding; conditions: K155R SIN3A
T4 construct: flag-SIN3A or the indicated Flag-SIN3A mutants (a.a. 1-400), or Flag-GFP, were co-expressed in HEK 293T cells with Myc-TGIF1 or Myc-TGIF2; expressed in transfected cells; host or cells: HEK 293T
T4 sequence (Q96ST3 1-400 K155R): as the sequence (Q96ST3 1-400) above, with K155R counted along it
Description: as §3, §4

[5] = molecular target: T5, interaction between SIN3A and TGIF2 (Homo sapiens, UniProt Q96ST3); assay: Co-IP experiment, anti-Myc western blot; assay type: binding; conditions: anti-Myc blotting
T5 construct: flag-SIN3A or the indicated Flag-SIN3A mutants (a.a. 1-400), or Flag-GFP, were co-expressed in HEK 293T with Myc-TGIF2; expressed in transfected cells; host or cells: HEK 293T
T5 sequence (Q96ST3 1-400): as the sequence (Q96ST3 1-400) above
Description: as §3, §4

Structure (SMILES): O=C(CCc1cn(-c2ccccc2)nc1-c1ccccc1)Oc1c(F)c(F)c(F)c(F)c1F [fragment 19, Pentafluorophenyl 3-(1,3-diphenyl-1H-pyrazol-4-yl)propanoate]
- IC50 (PNPO [1]): ~5 µM
- inhibitory effect on K100R mutant of PNPO (PNPO [2]): not observed

Structure (SMILES): O=C(Oc1c(F)c(F)c(F)c(F)c1F)c1cc(C(F)(F)F)cc(C(F)(F)F)c1 [fragment 21, Pentafluorophenyl 3,5-bis(trifluoromethyl)benzoate]
- co-immunoprecipitation of TGIF1 with SIN3A [3]: blocked the co-immunoprecipitation of TGIF1
- effect on SIN3A-TGIF1 interaction, K155R mutant [4]: conferred resistance to the effects of 21
- co-immunoprecipitation of TGIF2 with SIN3A [5]: partial blockade
